Experimental data taken from US20110027372A1, “MULTIPARTICULATES COMPRISING LOW-SOLUBILITY DRUGS AND CARRIERS THAT RESULT IN RAPID DRUG RELEASE” (priority 2005, published 2011).

Assay: Ratio of melting temperature to glass-transition temperature (Tm/Tg) of sugar alcohols
Assay type: physicochemical
Source text: The inventors addressed this problem by using a sugar alcohol that rapidly crystallizes, resulting in improved recovery and efficiency during the multiparticulate-formation process. Without wishing to be bound by any particular theory, it is believed that the tendency for a sugar alcohol to crystallize from an aqueous solution is characterized by the ratio of the Tm of the sugar alcohol (in K) to the glass-transition temperature for the alcohol, Tg (in K) of the sugar alcohol. The driving force for crystallization is controlled primarily by Tm, while the kinetic barrier to crystallization is controlled primarily by the Tg. The ratio, Tm/Tg (in K/K), indicates the relative propensity for a sugar alcohol to crystallize. The inventors have discovered that sugar alcohols for which the ratio of Tm in K to Tg in K is at least about 1.5 can be effectively used to make multiparticulates with the desired properties. Preferably, this Tm/Tg ratio (K/K) is at least about 1.6, and more preferably at least about 1.65. Examples of suitable sugar alcohols include mannitol (Tm=438 K; Tg=234 K; Tm/Tg=1.87) and erythritol (Tm=394 K; Tg=231 K; Tm/Tg=1.71). Mixtures of such sugar alcohols may also be used.

| Tm/Tg | Compound |
| --- | --- |
| 1.38 K/K | OC[C@@H](O)[C@@H](O)[C@H](O)[C@@H](O)CO [Sorbitol] |
| 1.87 K/K | OC[C@@H](O)[C@@H](O)[C@H](O)[C@H](O)CO [Mannitol] |

Further lines, the molecule ahead of its results:

| Compound | Tm/Tg |
| --- | --- |
| OC[C@@H](O)[C@@H](O)CO [Erythritol] | 1.71 K/K |
| OC[C@@H](O)[C@@H](O[C@H]1O[C@H](CO)[C@@H](O)[C@H](O)[C@H]1O)[C@H](O)[C@@H](O)CO [Maltitol] | 1.32 K/K |
| OC[C@@H](O)[C@H](O)[C@@H](O)CO [Xylitol] | 1.46 K/K |
